This is an account of results in patent US12364722B2, “Multifunctional lactobacillus capable of relieving PFOA toxic effects and application thereof” (priority 2019, dated 2025).

This test deals with mice with constipation. Kind of test: Loperamide constipation model: fecal water content and first black stool defecation time. To be noted: loperamide 10 mg/kgBW constipation, vs model group. Format: in vivo, BALB/c mice.

Description: 40 SPF male BALB/c mice (20-25 g) were randomly divided into 5 groups: a blank control group, a constipation model control group, a Lactobacillus fermentum CCFM1051 intervention group, a Lactobacillus plantarum control group and a phenolphthalein treatment group with 10 mice in each group. The freeze-dried Lactobacillus fermentum CCFM1051 powder was resuspended in skim milk powder to prepare a bacterial suspension with a concentration of 4.0×10^9 CFU/mL. […] The fecal water content was calculated by using the following formula: Fecal water content (%)=(wet weight of feces−dry weight of feces)/wet weight of feces×100. On the morning of the 17th day, the mice in the blank control group were gavaged with normal saline, the mice in the other groups were gavaged with loperamide, after the gavage for 1 h, all the mice were gavaged with 0.25 mL of an activated carbon arabic gum aqueous solution, each mouse was separately placed in a clean stainless steel cage covered with absorbent paper, time (min) from start of the gavage with the activated carbon to defecation of first black stool was recorded as first black stool defecation time to evaluate an effect of the Lactobacillus fermentum CCFM1051 on constipation of the mice, and during the period, the mice ate and drank freely.

In the case of `O=C1OC(c2ccc(O)cc2)(c2ccc(O)cc2)c2ccccc21` [phenolphthalein], the fecal water content result was “extremely significantly increased”. The “first black stool defecation time” value (activated carbon gavage) is on record as “significantly shortened”.
